Experimental findings from US12304931B2, “MENTSH analogs as therapeutics for diabetes, obesity, and their associated diseases and complications” (University of Southern California, priority 2016, dated 2025) are described below.

A short description of the data set: Pharmacokinetics of injected peptide in mice (ELISA). The format is in vivo. The conditions noted are these: ELISA detection. From the text:
FIG. 19. Detection of MENTSH mRNA and peptide and pharmacokinetics of injected peptide in mice. Northern blot hybridization identified the presence of MENTSH transcript in mitochondrial mRNA.
Northern blot hybridization identified the presence of MENTSH transcript in mitochondrial mRNA (FIG. 19). Further, the Inventors developed an ELISA assay for detection of MENTSH. […] Increasing persistent bioavailability of MENTSH by analogs, or other artificial modifications may further improve biological effects for therapeutic use.
(In general: An ELISA detects its analyte on a solid surface through an enzyme-linked reagent.)

Ends that are not written are not given here.

With “MKPNPATQNLSMLLNYPH [MENTSH, MKPNPATQNLSMLLNYPH]”, the “persistence of injected peptide” value is ~1 h.
